{"source": "paper PMC9848282", "about": "“Antinociceptive activity of doliroside B” (Pharmaceutical Biology, 2023)", "key": {"[1]": {"tested_on": "acetic acid-induced writhing in Kunming mice", "test": "Acetic acid-induced writhing test", "type": "in vivo", "details": "for ED50: Mus musculus, read-out: ED50 (median effective dose); for effect of NAL on the reduction of writhing number: absence vs presence of NAL 5 mg/kg i.p., MOP 1, IND 10, ASA 100, DB 5, DBDS 5 mg/kg, Figure 4; for fold weaker than DBDS (ED50): writhing test, ED50 compared with DBDS"}, "[2]": {"tested_on": "hot plate-induced nociception in mice", "test": "Eddy's hot plate test", "type": "in vivo", "protocol": "Female Kunming mice (20 ± 2 g) from Chengdu Dossy Experiment Animal Co., Ltd. (Sichuan, China) were used for antinociceptive experiments. These animals were kept under a constant temperature (23 ± 1 °C), humidity (40–70%), airflow speed ([…]) and noise (≤ 60 db), and maintained under a 12 h light-dark cycle. After the experiment is completed, mice were euthanized humanely. All the animal experiments were approved by the Institutional Animal Care and Use Committee of Yunnan Minzu University (permit no. 20200608).\nThis was performed according to a previously reported procedure (Eddy and Leimbach [1953]). The pain threshold was defined as the duration from the beginning of placing mice on the plate to the mice jumping, licking, or shaking its paws. Because the scrotum of male mice is saggy, which can be stimulated by hot plate, healthy female mice with pain threshold less than 20 s were used for hot plate test. […] After administration of the test compounds, the pain threshold was recorded at 0, 30, 60, 90, and 120 min. Among the tests in the absence and presence of NAL (5 mg/kg), i.p. injection of NAL was performed 10 min before administration of testing compounds. […]"}, "[3]": {"tested_on": "formalin-induced nociception in mice", "test": "Formalin test", "type": "in vivo"}, "NO production": {"tested_on": "NO production", "test": "cells", "type": "cell-based", "details": "Mus musculus, RAW264.7; 25 µmol/L (positive control); LPS-stimulated, 24 h"}, "Nav1.2": {"target": "Nav1.2 (Homo sapiens, UniProt Q99250)", "sequence (Q99250 whole entry)": "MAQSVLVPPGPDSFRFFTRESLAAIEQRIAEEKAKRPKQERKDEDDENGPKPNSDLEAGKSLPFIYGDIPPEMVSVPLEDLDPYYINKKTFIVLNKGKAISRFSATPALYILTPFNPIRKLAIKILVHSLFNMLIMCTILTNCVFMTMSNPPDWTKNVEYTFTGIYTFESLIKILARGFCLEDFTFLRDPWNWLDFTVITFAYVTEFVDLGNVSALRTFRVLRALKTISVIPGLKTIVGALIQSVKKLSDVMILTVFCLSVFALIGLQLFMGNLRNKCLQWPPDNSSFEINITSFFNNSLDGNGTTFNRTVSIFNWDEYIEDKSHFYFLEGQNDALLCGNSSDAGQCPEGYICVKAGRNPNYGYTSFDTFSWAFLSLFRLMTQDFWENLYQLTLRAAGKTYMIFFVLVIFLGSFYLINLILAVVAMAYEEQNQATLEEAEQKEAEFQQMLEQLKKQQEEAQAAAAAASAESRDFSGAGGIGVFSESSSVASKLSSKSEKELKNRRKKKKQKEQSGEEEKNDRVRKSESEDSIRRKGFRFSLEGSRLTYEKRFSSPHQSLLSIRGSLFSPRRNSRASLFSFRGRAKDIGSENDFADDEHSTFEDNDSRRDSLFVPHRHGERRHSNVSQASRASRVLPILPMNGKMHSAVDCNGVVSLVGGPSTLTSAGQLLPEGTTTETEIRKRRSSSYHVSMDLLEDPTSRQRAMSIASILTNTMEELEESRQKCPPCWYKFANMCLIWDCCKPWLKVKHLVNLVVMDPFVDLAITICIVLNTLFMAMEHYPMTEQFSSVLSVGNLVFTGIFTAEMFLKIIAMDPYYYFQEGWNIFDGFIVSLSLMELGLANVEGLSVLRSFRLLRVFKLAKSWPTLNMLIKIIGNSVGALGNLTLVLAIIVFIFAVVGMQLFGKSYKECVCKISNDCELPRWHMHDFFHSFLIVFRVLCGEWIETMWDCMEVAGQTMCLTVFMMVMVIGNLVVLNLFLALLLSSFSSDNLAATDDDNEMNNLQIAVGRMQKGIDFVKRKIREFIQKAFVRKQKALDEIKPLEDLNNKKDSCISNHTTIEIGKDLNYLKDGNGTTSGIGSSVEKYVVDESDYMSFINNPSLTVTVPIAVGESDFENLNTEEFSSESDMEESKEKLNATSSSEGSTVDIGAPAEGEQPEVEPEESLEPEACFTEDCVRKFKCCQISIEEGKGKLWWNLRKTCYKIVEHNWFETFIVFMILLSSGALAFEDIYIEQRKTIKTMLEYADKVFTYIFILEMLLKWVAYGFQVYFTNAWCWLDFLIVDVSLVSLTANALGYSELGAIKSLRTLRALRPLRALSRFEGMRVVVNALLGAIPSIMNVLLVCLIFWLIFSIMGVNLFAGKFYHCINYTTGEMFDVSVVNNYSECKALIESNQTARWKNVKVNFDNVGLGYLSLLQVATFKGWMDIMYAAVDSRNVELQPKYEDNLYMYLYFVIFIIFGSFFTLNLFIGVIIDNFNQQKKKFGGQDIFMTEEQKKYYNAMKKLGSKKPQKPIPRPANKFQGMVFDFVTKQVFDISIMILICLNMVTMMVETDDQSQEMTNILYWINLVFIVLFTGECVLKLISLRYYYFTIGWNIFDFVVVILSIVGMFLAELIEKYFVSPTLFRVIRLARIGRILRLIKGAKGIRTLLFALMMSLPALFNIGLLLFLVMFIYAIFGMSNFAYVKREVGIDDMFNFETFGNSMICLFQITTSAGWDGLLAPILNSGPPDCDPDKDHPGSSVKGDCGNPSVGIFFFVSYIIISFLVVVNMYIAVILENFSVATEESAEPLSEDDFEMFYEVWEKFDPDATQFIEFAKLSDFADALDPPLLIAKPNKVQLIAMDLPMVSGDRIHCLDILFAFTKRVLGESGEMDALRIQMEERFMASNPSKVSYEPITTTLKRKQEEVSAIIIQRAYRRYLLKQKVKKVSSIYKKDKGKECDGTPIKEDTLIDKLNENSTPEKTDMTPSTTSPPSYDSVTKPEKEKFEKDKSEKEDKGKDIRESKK", "type": "cell-based"}, "TRPV1 channel": {"target": "TRPV1 channel (Homo sapiens, UniProt Q8NER1)", "sequence (Q8NER1 whole entry)": "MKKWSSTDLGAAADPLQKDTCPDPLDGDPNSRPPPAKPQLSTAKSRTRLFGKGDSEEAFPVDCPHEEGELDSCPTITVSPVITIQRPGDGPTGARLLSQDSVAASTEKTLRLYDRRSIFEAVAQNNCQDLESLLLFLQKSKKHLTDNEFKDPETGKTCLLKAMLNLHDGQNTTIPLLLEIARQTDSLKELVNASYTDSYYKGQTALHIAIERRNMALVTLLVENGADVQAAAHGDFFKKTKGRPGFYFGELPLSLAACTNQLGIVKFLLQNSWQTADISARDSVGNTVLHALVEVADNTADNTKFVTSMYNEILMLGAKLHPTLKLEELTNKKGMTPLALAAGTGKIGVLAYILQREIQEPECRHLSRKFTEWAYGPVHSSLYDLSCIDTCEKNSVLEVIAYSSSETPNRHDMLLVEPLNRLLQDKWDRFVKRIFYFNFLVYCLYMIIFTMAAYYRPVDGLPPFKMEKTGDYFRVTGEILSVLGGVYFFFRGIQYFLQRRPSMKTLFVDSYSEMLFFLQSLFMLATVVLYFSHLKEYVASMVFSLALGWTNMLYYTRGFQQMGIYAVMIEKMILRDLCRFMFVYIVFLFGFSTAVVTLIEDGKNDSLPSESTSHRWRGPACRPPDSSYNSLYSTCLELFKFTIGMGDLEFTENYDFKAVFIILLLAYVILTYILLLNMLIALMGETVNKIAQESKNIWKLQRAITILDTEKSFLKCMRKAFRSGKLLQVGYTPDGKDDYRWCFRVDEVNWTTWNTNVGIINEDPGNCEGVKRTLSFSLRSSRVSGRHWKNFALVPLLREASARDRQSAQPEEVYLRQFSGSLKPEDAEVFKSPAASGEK", "test": "cell-based", "type": "cell-based"}, "[4]": {"details": "hot plate test, absence vs presence of NAL 5 mg/kg i.p."}, "[5]": {"details": "formalin test, absence vs presence of NAL 5 mg/kg i.p., MOP 1, IND 10, ASA 100, DB 20, DBDS 20 mg/kg, Figure 5"}}, "note": "Values joined by “and” are separate entries in the source; they are usually repeats but may differ in a detail not shown here. Equal values may be shown once.", "data": [{"compound": "CC(=O)Oc1ccccc1C(=O)O", "note": "[ASA, Acetylsalicylic acid]", "values": [{"measurement": "inhibition of writhing number", "setting": "[1]; 100 mg/kg oral, Figure 1(A) experiment", "result": 61.2, "unit": "%"}, {"measurement": "inhibition of writhing number", "setting": "[1]; 200 mg/kg, dose-response Figure 1(E)", "result": 73.3, "unit": "%"}, {"measurement": "ED50", "setting": "[1]; writhing test in mice", "result": 70.1, "unit": "mg/kg"}, {"measurement": "effect of NAL on the reduction of writhing number", "setting": "[1]", "result": "Only a minor difference"}, {"measurement": "Pain threshold", "setting": "[2]; 100 mg/kg, absence of NAL, 30 min, Table 2", "result": "20.3 ± 5.9", "unit": "s"}, {"measurement": "Pain threshold", "setting": "[2]; 100 mg/kg, absence of NAL, 60 min, Table 2", "result": "19.8 ± 3.2", "unit": "s"}, {"measurement": "Pain threshold", "setting": "[2]; 100 mg/kg, absence of NAL, 90 min, Table 2", "result": "14.1 ± 4.3", "unit": "s"}, {"measurement": "Pain threshold", "setting": "[2]; 100 mg/kg, 30 min, Table 1", "result": "18.6 ± 5.2", "unit": "s"}, {"measurement": "Pain threshold", "setting": "[2]; 100 mg/kg, 60 min, Table 1", "result": "17.8 ± 3.3", "unit": "s"}, {"measurement": "Pain threshold", "setting": "[2]; 100 mg/kg, 90 min, Table 1", "result": "12.9 ± 4.0", "unit": "s"}, {"measurement": "Pain threshold", "setting": "[2]; 100 mg/kg, 120 min, Table 1", "result": "10.6 ± 2.8", "unit": "s"}, {"measurement": "effect of NAL on the antinociceptive effect", "setting": "[2]; [4]", "result": "not effectively removed by NAL"}, {"measurement": "effect of NAL on the antinociceptive effect", "setting": "[3]; [5]", "result": "not effectively removed by NAL"}, {"measurement": "inhibition of licking time", "setting": "[3]; late phase (15-30 min), 100 mg/kg i.g.", "result": 64.8, "unit": "%"}]}, {"compound": "COc1ccc2c(c1)c(CC(=O)O)c(C)n2C(=O)c1ccc(Cl)cc1", "note": "[IND, indomethacin]", "values": [{"measurement": "inhibition of writhing number", "setting": "[1]; 10 mg/kg oral, Figure 1(A) experiment", "result": 58.7, "unit": "%"}, {"measurement": "inhibition of writhing number", "setting": "[1]; 20 mg/kg, dose-response Figure 1(D)", "result": 76.1, "unit": "%"}, {"measurement": "ED50", "setting": "[1]; writhing test in mice", "result": 5.91, "unit": "mg/kg"}, {"measurement": "effect of NAL on the reduction of writhing number", "setting": "[1]", "result": "Only a minor difference"}, {"measurement": "fold weaker than DBDS (ED50)", "setting": "[1]", "result": "approximately 5 fold"}, {"measurement": "Pain threshold", "setting": "[2]; 10 mg/kg, absence of NAL, 0 min, Table 2", "result": "12.1 ± 2.9", "unit": "s"}, {"measurement": "Pain threshold", "setting": "[2]; 10 mg/kg, absence of NAL, 30 min, Table 2", "result": "11.7 ± 3.0", "unit": "s"}, {"measurement": "Pain threshold", "setting": "[2]; 10 mg/kg, absence of NAL, 60 min, Table 2", "result": "11.6 ± 2.2", "unit": "s"}, {"measurement": "Pain threshold", "setting": "[2]; 10 mg/kg, absence of NAL, 90 min, Table 2", "result": "10.7 ± 2.1", "unit": "s"}, {"measurement": "Pain threshold", "setting": "[2]; 10 mg/kg, absence of NAL, 120 min, Table 2", "result": "12.0 ± 3.2", "unit": "s"}, {"measurement": "Pain threshold", "setting": "[2]; 10 mg/kg, 0 min, Table 1", "result": "11.3 ± 2.8", "unit": "s"}, {"measurement": "Pain threshold", "setting": "[2]; 10 mg/kg, 30 min, Table 1", "result": "11.7 ± 3.4", "unit": "s"}, {"measurement": "Pain threshold", "setting": "[2]; 10 mg/kg, 60 min, Table 1", "result": "12.5 ± 3.0", "unit": "s"}, {"measurement": "Pain threshold", "setting": "[2]; 10 mg/kg, 90 min, Table 1", "result": "12.1 ± 2.9", "unit": "s"}, {"measurement": "Pain threshold", "setting": "[2]; 10 mg/kg, 120 min, Table 1", "result": "10.9 ± 2.9", "unit": "s"}, {"measurement": "effect of NAL on the antinociceptive effect", "setting": "[2]; [4]", "result": "not effectively removed by NAL"}, {"measurement": "effect of NAL on the antinociceptive effect", "setting": "[3]; [5]", "result": "not effectively removed by NAL"}, {"measurement": "inhibition of licking time", "setting": "[3]; late phase (15-30 min), 10 mg/kg i.g.", "result": 57.3, "unit": "%"}]}, {"compound": "[H]/N=C(/NC)NCCC[C@H](N)C(=O)O", "note": "[L-NMMA, NG-Monomethyl-L-arginine acetate]", "values": [{"measurement": "inhibition at 25 µM", "setting": "NO production", "result": 73, "unit": "%"}]}, {"compound": "CN1CC[C@]23c4c5ccc(O)c4O[C@H]2[C@@H](O)C=C[C@H]3[C@H]1C5", "note": "[MOP, morphine]", "values": [{"measurement": "effect of NAL on the antinociceptive effect", "setting": "[2]; mouse, in vivo", "result": "removed by NAL"}, {"measurement": "effect of NAL on the antinociceptive effect", "setting": "[3]; mouse, in vivo", "result": "removed by NAL"}, {"measurement": "inhibition of licking time", "setting": "[3]; mouse, in vivo, ip, 1 mg/kg", "result": "55.3% and 75.9%"}]}, {"compound": "NC1=N[C@H](O)[C@H]2[C@H]3O[C@]4(O)O[C@@H]([C@@H](O)[C@@]2(N1)[C@@H]4O)[C@]3(O)CO", "note": "[TTX, Tetrodotoxin]", "values": [{"measurement": "IC50", "setting": "Nav1.2", "result": "0.016 ± 0.015", "unit": "µM"}]}, {"compound": "COc1cc(CNC(=O)CCCC/C=C/C(C)C)ccc1O", "note": "[capsaicin]", "values": [{"measurement": "direct effect on TRPV1 activity (compound alone)", "setting": "TRPV1 channel; compound alone", "result": "induced a significant activation"}]}, {"compound": "Oc1cc2c(cc1O)CN(C(=S)NCCc1ccc(Cl)cc1)CCC2", "note": "[capsazepine]", "values": [{"measurement": "IC50", "setting": "TRPV1 channel; TRPV1 inhibitor control", "result": "7.3 ± 0.06", "unit": "µM"}]}, {"compound": "doliroside B [DB]", "values": [{"measurement": "inhibition of writhing number", "setting": "[1]; 5 mg/kg oral, dose-response Figure 1(B-D)", "result": 58.7, "unit": "%"}, {"measurement": "effect of NAL on the reduction of writhing number", "setting": "[1]", "result": "Only a minor difference"}, {"measurement": "ED50 (median effective dose)", "setting": "[1]; writhing test in mice", "result": 4.68, "unit": "mg/kg"}, {"measurement": "fold weaker than DBDS (ED50)", "setting": "[1]", "result": "~4", "unit": "fold"}, {"measurement": "Pain threshold", "setting": "[2]; 2.5 mg/kg, 0 min, Table 1", "result": "12.0 ± 4.4", "unit": "s"}, {"measurement": "Pain threshold", "setting": "[2]; 2.5 mg/kg, 30 min, Table 1", "result": "12.1 ± 3.7", "unit": "s"}, {"measurement": "Pain threshold", "setting": "[2]; 2.5 mg/kg, 60 min, Table 1", "result": "12.7 ± 4.4", "unit": "s"}, {"measurement": "Pain threshold", "setting": "[2]; 2.5 mg/kg, 90 min, Table 1", "result": "14.2 ± 4.7", "unit": "s"}, {"measurement": "Pain threshold", "setting": "[2]; 2.5 mg/kg, 120 min, Table 1", "result": "12.4 ± 3.4", "unit": "s"}, {"measurement": "Pain threshold", "setting": "[2]; 5 mg/kg, 0 min, Table 1", "result": "11.4 ± 2.9", "unit": "s"}, {"measurement": "Pain threshold", "setting": "[2]; 5 mg/kg, 30 min, Table 1", "result": "12.0 ± 3.4", "unit": "s"}, {"measurement": "Pain threshold", "setting": "[2]; 5 mg/kg, 60 min, Table 1", "result": "10.2 ± 2.9", "unit": "s"}, {"measurement": "Pain threshold", "setting": "[2]; 5 mg/kg, 90 min, Table 1", "result": "12.6 ± 3.6", "unit": "s"}, {"measurement": "Pain threshold", "setting": "[2]; 5 mg/kg, 120 min, Table 1", "result": "10.9 ± 3.7", "unit": "s"}, {"measurement": "Pain threshold", "setting": "[2]; 10 mg/kg, 0 min, Table 1", "result": "10.4 ± 3.0", "unit": "s"}, {"measurement": "Pain threshold", "setting": "[2]; 10 mg/kg, 30 min, Table 1", "result": "14.6 ± 4.9", "unit": "s"}, {"measurement": "Pain threshold", "setting": "[2]; 10 mg/kg, 60 min, Table 1", "result": "16.4 ± 6.2", "unit": "s"}, {"measurement": "Pain threshold", "setting": "[2]; 10 mg/kg, 90 min, Table 1", "result": "15.6 ± 4.2", "unit": "s"}, {"measurement": "Pain threshold", "setting": "[2]; 10 mg/kg, 120 min, Table 1", "result": "12.6 ± 3.7", "unit": "s"}, {"measurement": "Pain threshold", "setting": "[2]; 20 mg/kg, absence of NAL, 0 min, Table 2", "result": "11.8 ± 3.3", "unit": "s"}, {"measurement": "Pain threshold", "setting": "[2]; 20 mg/kg, absence of NAL, 30 min, Table 2", "result": "19.6 ± 4.2", "unit": "s"}, {"measurement": "Pain threshold", "setting": "[2]; 20 mg/kg, absence of NAL, 60 min, Table 2", "result": "21.7 ± 5.9", "unit": "s"}, {"measurement": "Pain threshold", "setting": "[2]; 20 mg/kg, absence of NAL, 90 min, Table 2", "result": "18.0 ± 5.6", "unit": "s"}, {"measurement": "Pain threshold", "setting": "[2]; 20 mg/kg, absence of NAL, 120 min, Table 2", "result": "15.2 ± 4.6", "unit": "s"}, {"measurement": "Pain threshold", "setting": "[2]; 20 mg/kg, 0 min, Table 1", "result": "11.8 ± 3.3", "unit": "s"}, {"measurement": "Pain threshold", "setting": "[2]; 20 mg/kg, 30 min, Table 1", "result": "18.8 ± 3.6", "unit": "s"}, {"measurement": "Pain threshold", "setting": "[2]; 20 mg/kg, 60 min, Table 1", "result": "19.7 ± 5.3", "unit": "s"}, {"measurement": "Pain threshold", "setting": "[2]; 20 mg/kg, 90 min, Table 1", "result": "18.1 ± 6.3", "unit": "s"}, {"measurement": "Pain threshold", "setting": "[2]; 20 mg/kg, 120 min, Table 1", "result": "13.8 ± 4.2", "unit": "s"}, {"measurement": "effect of NAL on the antinociceptive effect", "setting": "[2]; [4]", "result": "not effectively removed by NAL"}, {"measurement": "effect of NAL on the antinociceptive effect", "setting": "[3]; [5]", "result": "not effectively removed by NAL"}]}]}
